Results on 19 compounds are retold here after patent US20250215029A1 (Recludix Pharma, Inc., priority 2022, published 2025).

Structures are written as SMILES. pIC50: −log10 of the molar value.

T1 sequence (P40763 whole entry): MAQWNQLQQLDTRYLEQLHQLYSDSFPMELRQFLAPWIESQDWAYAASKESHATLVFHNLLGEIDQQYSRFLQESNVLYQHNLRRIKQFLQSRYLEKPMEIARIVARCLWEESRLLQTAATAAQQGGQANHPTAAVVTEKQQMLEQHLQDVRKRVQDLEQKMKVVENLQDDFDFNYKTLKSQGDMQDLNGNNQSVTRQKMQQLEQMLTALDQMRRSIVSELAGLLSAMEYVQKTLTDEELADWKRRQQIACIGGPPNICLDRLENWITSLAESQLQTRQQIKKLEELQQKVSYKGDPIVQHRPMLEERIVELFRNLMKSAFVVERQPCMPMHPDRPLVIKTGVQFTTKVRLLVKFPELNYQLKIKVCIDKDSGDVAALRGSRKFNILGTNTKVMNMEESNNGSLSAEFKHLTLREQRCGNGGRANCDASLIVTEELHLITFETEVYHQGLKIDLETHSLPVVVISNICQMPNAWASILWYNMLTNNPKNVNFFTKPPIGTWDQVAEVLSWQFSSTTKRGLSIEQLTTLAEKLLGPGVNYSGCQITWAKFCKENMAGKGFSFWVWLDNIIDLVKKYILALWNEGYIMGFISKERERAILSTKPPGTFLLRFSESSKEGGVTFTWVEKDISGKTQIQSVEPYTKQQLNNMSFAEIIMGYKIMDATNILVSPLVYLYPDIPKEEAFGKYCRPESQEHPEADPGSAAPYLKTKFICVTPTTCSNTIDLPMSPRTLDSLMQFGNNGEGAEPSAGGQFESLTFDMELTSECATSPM

The assay concerns the target T1, pY705-STAT3 in PBMC (Homo sapiens, UniProt P40763).
T1 construct: Cryopreserved Peripheral Blood Mononuclear Cells (PBMC) are from AllCells; host or cells: cryopreserved PBMC
Nature of the assay: MSD-pSTAT-PBMC Assay (pSTAT3, IL-6 stimulated). In kind it is cell-based. Conditions: PBMC, compound 3 hrs, then 10 ng/mL IL-6 for 10 min; Table 115; read-out: STAT3. The gist of the method:
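Inhibition of cytokine-induced STAT phosphorylation was measured in recovered human PBMC after 3 hrs compound exposure and a 10 min IL-4 (1 ng/mL) or IL-6 (10 ng/mL) challenge. MSD detection of pY641-STAT6 or pY705-STAT3 yielded IC50 values.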
Take `CCCOC(=O)[C@H](C)NP(=O)(Oc1ccccc1)[C@@H](F)c1ccc2sc(C(=O)N[C@H]3CCC[C@H]4CC[C@@H](C(=O)N5CC(c6cncc(F)c6N(C)C)C5)N4C3=O)cc2c1` (stereo partly drawn) [Compound 1022, propyl (((R)-(2-(((3S,6S,9aS)-3-(3-(4-(dimethylamino)-5-fluoropyridin-3-yl)azetidine-1-carbonyl)-5-oxooctahydro-1H-pyrrolo[1,2-a]azepin-6-yl)carbamoyl)benzo [b]thiophen-5-yl)fluoromethyl) (phenoxy)phosphoryl)-L-alaninate]: the pIC50 was greater than 7.00.

As to `CCCOC(=O)[C@H](COC)NP(=O)(Cc1ccc2sc(C(=O)N[C@H]3CCC[C@H]4CC[C@@H](C(=O)N5CC(c6cnccc6N(C)C)C5)N4C3=O)cc2c1)Oc1ccccc1` (stereo partly drawn) [Compound 1017, propyl N-(((2-(((3S,6S,9aS)-3-(3-(4-(dimethylamino)pyridin-3-yl)azetidine-1-carbonyl)-5-oxooctahydro-1H-pyrrolo[1,2-a]azepin-6-yl)carbamoyl)benzo [b]thiophen-5-yl)methyl)(phenoxy)phosphoryl)-O-methyl-L-serinate], the pIC50 was greater than 7.00.

On to `CC(C)CC(=O)SCCOP(=O)(OCCSC(=O)CC(C)C)C(F)(F)c1ccc2sc(C(=O)N[C@H]3CCC[C@H]4CC[C@@H](C(=O)N5CC(c6nncn6C)C5)N4C3=O)cc2c1` [Compound 966, S,S′-((((difluoro(2-(((3S,6S,9aS)-3-(3-(4-methyl-4H-1,2,4-triazol-3-yl)azetidine-1-carbonyl)-5-oxooctahydro-1H-pyrrolo[1,2-a]azepin-6-yl)carbamoyl)benzo [b]thiophen-5-yl)methyl)phosphoryl)bis(oxy))bis(ethane-2,1-diyl)) bis(3-methylbutanethioate)], for which the pIC50 was greater than 7.00.

Consider `CCCOC(=O)[C@H](C)NP(=O)(Oc1ccccc1)C(C)(F)c1ccc2sc(C(=O)N[C@H]3CCC[C@H]4CC[C@@H](C(=O)N5CC(c6cccnc6)C5)N4C3=O)cc2c1` (stereo partly drawn) [Compound 313, propyl ((1-fluoro-1-(2-(((3S,6S,9aS)-5-oxo-3-(3-(pyridin-3-yl)azetidine-1-carbonyl)octahydro-1H-pyrrolo[1,2-a]azepin-6-yl)carbamoyl)benzo [b]thiophen-5-yl)ethyl)(phenoxy)phosphoryl)-L-alaninate], for which the pIC50 was 5.52 to 6.00.

For the compound `CCCOC(=O)CC(C)NP(=O)(Cc1ccc2sc(C(=O)N[C@H]3CCC[C@H]4CC[C@@H](C(=O)N5CC(c6cccnc6)C5)N4C3=O)cc2c1)Oc1ccccc1` (stereo partly drawn) [Compound 311, propyl 3-((((2-(((3S,6S,9aS)-5-oxo-3-(3-(pyridin-3-yl)azetidine-1-carbonyl)octahydro-1H-pyrrolo[1,2-a]azepin-6-yl)carbamoyl)benzo [b]thiophen-5-yl)methyl)(phenoxy)phosphoryl)amino) butanoate], the pIC50 was less than 5.52.

With `CC(C)OC(=O)[C@@H]1CCCN1P(=O)(Cc1ccc2sc(C(=O)N[C@H]3CCC[C@H]4CC[C@@H](C(=O)N5CC(c6cccnc6)C5)N4C3=O)cc2c1)Oc1ccccc1` (stereo partly drawn) [Compound 391, isopropyl (((2-(((3S,6S,9aS)-5-oxo-3-(3-(pyridin-3-yl)azetidine-1-carbonyl)octahydro-1H-pyrrolo[1,2-a]azepin-6-yl)carbamoyl)benzo [b]thiophen-5-yl)methyl)(phenoxy)phosphoryl)-L-prolinate], the pIC50 was 5.52 to 6.00.

As for `CCCOC(=O)[C@H](C)N[P@@](=O)(Oc1ccccc1)[C@@H](F)c1ccc2sc(C(=O)N[C@H]3CCC[C@H]4CC[C@@H](C(=O)N5CC(c6cccnc6)C5)N4C3=O)cc2c1` [Compound 447], the pIC50 is greater than 7.00.

Take `CCCOC(=O)[C@H](C)NP(=O)(Cc1ccc2sc(C(=O)N[C@H]3CCC[C@H]4CC[C@@H](C(=O)N[C@H]5CN(C(C)=O)C[C@@H]5F)N4C3=O)cc2c1)Oc1ccccc1` (stereo partly drawn) [Compound 308, propyl (((2-(((3S,6S,9aS)-3-(((3S,4S)-1-acetyl-4-fluoropyrrolidin-3-yl)carbamoyl)-5-oxooctahydro-1H-pyrrolo[1,2-a]azepin-6-yl)carbamoyl)benzo [b]thiophen-5-yl)methyl)(phenoxy)phosphoryl)-L-alaninate]: the pIC50 was less than 5.52.

`CCCOC(=O)[C@H](C)NP(=O)(Cc1ccc2sc(C(=O)N[C@H]3CCC[C@H]4CC[C@@H](C(=O)N5CC(c6cncnc6N6CCC6)C5)N4C3=O)cc2c1)Oc1ccccc1` (stereo partly drawn) [Compound 1019, propyl (((2-(((3S,6S,9aS)-3-(3-(4-(azetidin-1-yl)pyrimidin-5-yl)azetidine-1-carbonyl)-5-oxooctahydro-1H-pyrrolo[1,2-a]azepin-6-yl)carbamoyl)benzo [b]thiophen-5-yl)methyl)(phenoxy)phosphoryl)-L-alaninate]: the pIC50 was greater than 7.00.

In the case of `CCCOC(=O)[C@H](C)NP(=O)(Oc1ccccc1)[C@@H](F)c1ccc2sc(C(=O)N[C@H]3CCC[C@H]4CC[C@@H](C(=O)N5CC(c6cncc(F)c6OC)C5)N4C3=O)cc2c1` (stereo partly drawn) [Compound 1073, propyl (((R)-fluoro(2-(((3S,6S,9aS)-3-(3-(5-fluoro-4-methoxypyridin-3-yl)azetidine-1-carbonyl)-5-oxooctahydro-1H-pyrrolo[1,2-a]azepin-6-yl)carbamoyl)benzo [b]thiophen-5-yl)methyl)(phenoxy)phosphoryl)-L-alaninate], the pIC50 was 6.00 to 7.00.

In the case of `CCCOC(=O)[C@H](C)NP(=O)(Oc1ccccc1)C(F)(F)c1ccc2sc(C(=O)N[C@H]3CCC[C@H]4CC[C@@H](C(=O)N5CC(c6cccnc6)C5)N4C3=O)cc2c1` (stereo partly drawn) [Compound 306, propyl ((difluoro(2-(((3S,6S,9aS)-5-oxo-3-(3-(pyridin-3-yl)azetidine-1-carbonyl)octahydro-1H-pyrrolo[1,2-a]azepin-6-yl)carbamoyl)benzo [b]thiophen-5-yl)methyl)(phenoxy)phosphoryl)-L-alaninate], the pIC50 was 5.52 to 6.00.

For the compound `CC(C)COC(=O)[C@@H](NP(=O)(Cc1ccc2sc(C(=O)N[C@H]3CCC[C@H]4CC[C@@H](C(=O)N5CC(c6cccnc6)C5)N4C3=O)cc2c1)Oc1ccccc1)C(C)C` (stereo partly drawn) [Compound 948, isobutyl (((2-(((3S,6S,9aS)-5-oxo-3-(3-(pyridin-3-yl)azetidine-1-carbonyl)octahydro-1H-pyrrolo[1,2-a]azepin-6-yl)carbamoyl)benzo [b]thiophen-5-yl)methyl) (phenoxy)phosphoryl)-L-valinate], the pIC50 was 5.52 to 6.00.

Turning to `CCCOC(=O)[C@H](C)NP(=O)(Cc1ccc2sc(C(=O)N[C@H]3CCC[C@H]4CC[C@@H](C(=O)N5CC(c6cccnc6)C5)N4C3=O)cc2c1)OCC` (stereo partly drawn) [Compound 439, propyl (ethoxy((2-(((3S,6S,9aS)-5-oxo-3-(3-(pyridin-3-yl)azetidine-1-carbonyl)octahydro-1H-pyrrolo[1,2-a]azepin-6-yl)carbamoyl)benzo [b]thiophen-5-yl)methyl)phosphoryl)-L-alaninate], the pIC50 was 6.00 to 7.00.

For `CCCOC(=O)[C@H](C)NP(=O)(Cc1ccc2sc(C(=O)N[C@H]3C[C@H](C)C[C@H]4CC[C@@H](C(=O)N5CC(c6cnccc6C)C5)N4C3=O)cc2c1)Oc1ccccc1` (stereo partly drawn) [Compound 283, propyl (((2-(((3S,6S,8S,9aR)-8-methyl-3-(3-(4-methylpyridin-3-yl)azetidine-1-carbonyl)-5-oxooctahydro-1H-pyrrolo[1,2-a]azepin-6-yl)carbamoyl)benzo [b]thiophen-5-yl)methyl)(phenoxy)phosphoryl)-L-alaninate], the pIC50 was greater than 7.00.

Consider `CCCOC(=O)[C@H](C)NP(=O)(Oc1ccccc1)[C@H](F)c1ccc2sc(C(=O)N[C@H]3CCC[C@H]4CC[C@@H](C(=O)N5CC(c6cncnc6N(C)C)C5)N4C3=O)cc2c1` (stereo partly shown) [Compound 1068], for which the pIC50 is greater than 7.00.

Consider `CC(C)CC(=O)SCCOP(=O)(OCOC(=O)OC1CCOCC1)C(F)(F)c1ccc2sc(C(=O)N[C@H]3CCC[C@H]4CC[C@@H](C(=O)N5CC(c6ncccn6)C5)N4C3=O)cc2c1` (stereo partly drawn) [Compound 1105, S-(2-(((difluoro(2-(((3S,6S,9aS)-5-oxo-3-(3-(pyrimidin-2-yl)azetidine-1-carbonyl)octahydro-1H-pyrrolo[1,2-a]azepin-6-yl)carbamoyl)benzo [b]thiophen-5-yl)methyl)(((((tetra-hydro-2H-pyran-4-yl)oxy)carbonyl)oxy)methoxy)phosphoryl)oxy)ethyl) 3-methylbutanethioate], for which the pIC50 is greater than 7.00.

Turning to `CCCOC(=O)[C@H](C)NP(=O)(Oc1ccccc1)[C@@H](F)c1ccc2sc(C(=O)N[C@H]3CCC[C@H]4CC[C@@H](C(=O)N5CC(c6cnccc6N6CCC6)C5)N4C3=O)cc2c1` (stereo partly drawn) [Compound 1028, propyl (((R)-(2-(((3S,6S,9aS)-3-(3-(4-(azetidin-1-yl)pyridin-3-yl)azetidine-1-carbonyl)-5-oxooctahydro-1H-pyrrolo[1,2-a]azepin-6-yl)carbamoyl)benzo [b]thiophen-5-yl)fluoromethyl) (phenoxy)phosphoryl)-L-alaninate], the pIC50 is 6.00 to 7.00.

For `CCCOC(=O)[C@H](C)NP(=O)(Cc1ccc2sc(C(=O)N[C@H]3CCC[C@H]4CC[C@@H](C(=O)N5CC(c6c(OC)ccnc6F)C5)N4C3=O)cc2c1)Oc1ccccc1` (stereo partly drawn) [Compound 980, propyl (((2-(((3S,6S,9aS)-3-(3-(2-fluoro-4-methoxypyridin-3-yl)azetidine-1-carbonyl)-5-oxooctahydro-1H-pyrrolo[1,2-a]azepin-6-yl)carbamoyl)benzo [b]thiophen-5-yl)methyl)(phenoxy)phosphoryl)-L-alaninate], the pIC50 was 5.52 to 6.00.

Consider `CCCOC(=O)[C@H](C)NP(=O)(Oc1ccccc1)[C@@H](F)c1ccc2sc(C(=O)N[C@H]3C[C@@H](C)C[C@H]4CC[C@@H](C(=O)N5CC(c6cncnc6N6CCC6)C5)N4C3=O)cc2c1` (stereo partly shown) [Compound 1077], for which the pIC50 was greater than 7.00.
